Where a SMILES comes first, the peptide text is derived from it.
Target: T1, human Oxytocin (OTR) receptor (Homo sapiens, UniProt P30559)
T1 construct: expressed in transfected cells
T1 sequence (P30559 1-389): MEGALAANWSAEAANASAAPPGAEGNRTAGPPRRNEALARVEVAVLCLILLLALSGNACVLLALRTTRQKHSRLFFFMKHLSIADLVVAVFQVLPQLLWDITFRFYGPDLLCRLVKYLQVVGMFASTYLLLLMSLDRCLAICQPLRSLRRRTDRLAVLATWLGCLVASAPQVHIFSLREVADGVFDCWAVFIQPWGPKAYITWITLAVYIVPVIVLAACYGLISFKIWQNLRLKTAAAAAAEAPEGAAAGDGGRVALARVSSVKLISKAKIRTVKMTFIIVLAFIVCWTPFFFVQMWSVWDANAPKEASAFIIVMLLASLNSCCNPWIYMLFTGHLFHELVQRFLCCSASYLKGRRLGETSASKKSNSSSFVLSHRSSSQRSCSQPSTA
Test: Calcium flux assay (FLIPR) in CHO cells expressing human OTR
Type: cell-based
Settings: for Emax: CHO, maximum response normalized to endogenous full agonist = 100%, read-out: hOT efficacy; for EC50: agonist mode, CHO cells, calcium flux FLIPR, read-out: hOT EC50
From the text: Chines Hamster Ovary (CHO) cells were transfected with expression plasmids encoding either the human Vla, the human Oxytocin (OTR) or the humanV2 receptor, the later in combination with the chimeric Gqs5 G protein to redirect the signal to Calcium flux. Stable cells were cloned by limiting dilution to yield monoclonal cell lines expressing either human Vla, human V2+Gqs5 or human OTR receptors and selected based on functional responses detected on a fluorometric imaging plate reader (FLIPR) detecting Calcium flux in the cell after receptor activation. The stable cell lines were grown in F-12 K Nutrient Mixture (Kaighns Modification), containing 10% foetal bovine serum (FBS), 1% penicillin-streptomycin, 1% L-glutamate, 200 ug/ml Geneticin at 37° C. in a 10% CO2 incubator at 95% humidity.
Calcium Flux Assays Using Fluorescent Imaging (Fluorometric Imaging Plate Reader, FLIPR)
On the afternoon before the assay, cells were plated at a density of 50,000 cells/well into black 96 well plates with clear bottoms to allow cell inspection and fluorescence measurements from the bottom of each well. The density of cells was sufficient to yield a confluent monolayer the next day. Hanks balanced salt solution, without phenol red, containing 20 mM HEPES (pH 7.3) and 2.5 mM probenecid (assay buffer) was prepared fresh for each experiment. Compound dilutions were made using a Beckman Biomek 2000 laboratory automation workstation, in assay buffer containing 1% DMSO. The dye-loading buffer consisted of a final concentration of 2 μM Fluo-4-AM (dissolved in DMSO and pluronic acid) in assay buffer. The existing culture media was removed from the wells and 100 μl of the dye-loading buffer was added to each well and incubated for approximately 60 min at 37° C. in a 5% CO2 incubator at 95% humidity. Once dye-loaded, the cells were washed thoroughly on an Embla cell washer with the assay buffer to remove any unincorporated dye. Exactly 100 μl assay buffer was left in each well.
Each 96 well plate containing dye-loaded cells was placed into the FLIPR machine and the laser intensity set to a suitable level to detect low basal fluorescence. To test compounds as agonists, 25 μl diluted compound was added to the plate 10 seconds into the fluorescent measurements and fluorescent response was recorded for 5 minutes. The fluorescence data was normalized to the endogenous full agonist dose-response set at 100% for the maximum response and 0% for the minimum. Each agonist concentration-response curve was constructed using a four parameter logistic equation with Microsoft Excel XLFit as follows: Y=Minimum+((Maximum−Minimum)/(1+10^(LogEC50−X)nH)), where y is the % normalized fluorescence, minimum is the minimum y, maximum is the maximum y, log EC50 is the log10 concentration which produces 50% of the maximum induced fluorescence, x is the log10 of the concentration of the agonist compound and H is the slope of the curve (the Hill Coefficient). The maximum value gives the efficacy of the agonist test compound in percentage. The concentration of agonist that produced a half-maximal response is represented by the EC50 value, the logarithm of which yielded the pEC50 value.

Emax [%] | EC50 [nM] | Compound
144 | 1.7 | CC[C@H](C)[C@@H]1NC(=O)[C@H](Cc2ccc(O)cc2)NC(=O)CCS(=O)(=O)CC[C@@H](C(=O)N2CC(F)(F)C[C@H]2C(=O)N[C@@H](CC(C)C)C(=O)NCC(N)=O)NC(=O)[C@H](CC(N)=O)NC(=O)[C@H](CCC(N)=O)NC1=O [Example 3] (HELM PEPTIDE1{Y.I.Q.N.[O=C([C@H](CCS(=O)(=O)CCC(=O)[*:3])N[*:1])[*:2]].[O=C([C@@H]1CC(F)(F)CN1[*:1])[*:2]].L.G.[am]}$PEPTIDE1,PEPTIDE1,1:R1-5:R3$$$V2.0)
128 | 3 | CC[C@H](C)[C@@H]1NC(=O)[C@H](Cc2ccc(O)cc2)NC(=O)CCS(=O)(=O)CC[C@@H](C(=O)N2CC[C@H]2C(=O)N[C@@H](CC(C)C)C(=O)NCC(N)=O)NC(=O)[C@H](CC(N)=O)NC(=O)[C@H](CCC(N)=O)NC1=O [Example 4] (HELM PEPTIDE1{Y.I.Q.N.[O=C([C@H](CCS(=O)(=O)CCC(=O)[*:3])N[*:1])[*:2]].[O=C([C@@H]1CCN1[*:1])[*:2]].L.G.[am]}$PEPTIDE1,PEPTIDE1,1:R1-5:R3$$$V2.0)
130 | 3.8 | CC[C@H](C)[C@@H]1NC(=O)[C@H](Cc2ccc(O)cc2)NC(=O)CCS(=O)(=O)CC[C@@H](C(=O)N2CCCC[C@H]2C(=O)N[C@@H](CC(C)C)C(=O)NCC(N)=O)NC(=O)[C@H](CC(N)=O)NC(=O)[C@H](CCC(N)=O)NC1=O [Example 5] (HELM PEPTIDE1{Y.I.Q.N.[O=C([C@H](CCS(=O)(=O)CCC(=O)[*:3])N[*:1])[*:2]].[O=C([C@@H]1CCCCN1[*:1])[*:2]].L.G.[am]}$PEPTIDE1,PEPTIDE1,1:R1-5:R3$$$V2.0)
145 |  | CC[C@H](C)[C@@H]1NC(=O)[C@H](Cc2ccc(O)cc2)NC(=O)CCS(=O)(=O)CC[C@@H](C(=O)N2C[C@@H](F)C[C@H]2C(=O)N[C@@H](CC(C)C)C(=O)NCC(N)=O)NC(=O)[C@H](CC(N)=O)NC(=O)[C@H](CCC(N)=O)NC1=O [Example 6] (HELM PEPTIDE1{Y.I.Q.N.[O=C([C@H](CCS(=O)(=O)CCC(=O)[*:3])N[*:1])[*:2]].[O=C([C@@H]1C[C@H](F)CN1[*:1])[*:2]].L.G.[am]}$PEPTIDE1,PEPTIDE1,1:R1-5:R3$$$V2.0; C-terminus assumed; bridges inferred)
141 | 2.6 | CC[C@H](C)[C@@H]1NC(=O)[C@H](Cc2ccc(O)cc2)NC(=O)CCS(=O)(=O)CC[C@@H](C(=O)N2C[C@@H](F)C[C@H]2C(=O)N[C@@H](CC(C)C)C(=O)NCC(N)=O)NC(=O)[C@H](CC(N)=O)NC(=O)[C@H](CCC(N)=O)NC1=O [Example 7] (HELM PEPTIDE1{Y.I.Q.N.[O=C([C@H](CCS(=O)(=O)CCC(=O)[*:3])N[*:1])[*:2]].[O=C([C@@H]1C[C@H](F)CN1[*:1])[*:2]].L.G.[am]}$PEPTIDE1,PEPTIDE1,1:R1-5:R3$$$V2.0)
129 | 0.8 | CC[C@H](C)[C@@H]1NC(=O)[C@H](Cc2ccc(O)cc2)NC(=O)CCS(=O)(=O)CC[C@@H](C(=O)N2C[C@H](O)C[C@H]2C(=O)N[C@@H](CC(C)C)C(=O)NCC(N)=O)NC(=O)[C@H](CC(N)=O)NC(=O)[C@H](CCC(N)=O)NC1=O [Example 8] (HELM PEPTIDE1{Y.I.Q.N.[O=C([C@H](CCS(=O)(=O)CCC(=O)[*:3])N[*:1])[*:2]].[Hyp].L.G.[am]}$PEPTIDE1,PEPTIDE1,1:R1-5:R3$$$V2.0)
104 | 1 | CCCC[C@H](NC(=O)CN(C)C(=O)[C@@H]1CCS(=O)(=O)CCC(=O)N[C@@H](Cc2ccc(O)cc2)C(=O)N[C@@H]([C@@H](C)CC)C(=O)N[C@@H](CCC(N)=O)C(=O)N[C@@H](CC(N)=O)C(=O)N1)C(=O)NCC(N)=O [Example 9] (HELM PEPTIDE1{Y.I.Q.N.[O=C([C@H](CCS(=O)(=O)CCC(=O)[*:3])N[*:1])[*:2]].[Sar].[Nle].G.[am]}$PEPTIDE1,PEPTIDE1,1:R1-5:R3$$$V2.0)
100 |  | CC[C@H](C)[C@@H]1NC(=O)[C@H](Cc2ccc(O)cc2)NC(=O)CCS(=O)(=O)CC[C@@H](C(=O)N(C)CC(=O)NC(C)(C)C(=O)NCC(N)=O)NC(=O)[C@H](CC(N)=O)NC(=O)[C@H](CCC(N)=O)NC1=O [Example 10] (HELM PEPTIDE1{Y.I.Q.N.[O=C([C@H](CCS(=O)(=O)CCC(=O)[*:3])N[*:1])[*:2]].[Sar].[Aib].G.[am]}$PEPTIDE1,PEPTIDE1,1:R1-5:R3$$$V2.0; C-terminus assumed; bridges inferred)
115 |  | CC[C@H](C)[C@@H]1NC(=O)[C@H](Cc2ccc(O)cc2)NC(=O)CCS(=O)(=O)CC[C@@H](C(=O)N(C)CC(=O)N[C@@H](CC2CCCCC2)C(=O)NCC(N)=O)NC(=O)[C@H](CC(N)=O)NC(=O)[C@H](CCC(N)=O)NC1=O [Example 11] (HELM PEPTIDE1{Y.I.Q.N.[O=C([C@H](CCS(=O)(=O)CCC(=O)[*:3])N[*:1])[*:2]].[Sar].[Cha].G.[am]}$PEPTIDE1,PEPTIDE1,1:R1-5:R3$$$V2.0; C-terminus assumed; bridges inferred)
112 | 1.4 | CC[C@H](C)[C@@H]1NC(=O)[C@H](Cc2ccc(O)cc2)NC(=O)CCS(=O)(=O)CC[C@@H](C(=O)N(C)CC(=O)N[C@H](C(=O)NCC(N)=O)C(C)C)NC(=O)[C@H](CC(N)=O)NC(=O)[C@H](CCC(N)=O)NC1=O [Example 12] (HELM PEPTIDE1{Y.I.Q.N.[O=C([C@H](CCS(=O)(=O)CCC(=O)[*:3])N[*:1])[*:2]].[Sar].V.G.[am]}$PEPTIDE1,PEPTIDE1,1:R1-5:R3$$$V2.0)
117 |  | CC[C@H](C)[C@H](NC(=O)CN(C)C(=O)[C@@H]1CCS(=O)(=O)CCC(=O)N[C@@H](Cc2ccc(O)cc2)C(=O)N[C@@H]([C@@H](C)CC)C(=O)N[C@@H](CCC(N)=O)C(=O)N[C@@H](CC(N)=O)C(=O)N1)C(=O)NCC(N)=O [Example 13] (HELM PEPTIDE1{Y.I.Q.N.[O=C([C@H](CCS(=O)(=O)CCC(=O)[*:3])N[*:1])[*:2]].[Sar].I.G.[am]}$PEPTIDE1,PEPTIDE1,1:R1-5:R3$$$V2.0; C-terminus assumed; bridges inferred)
117 | 0.7 | CCC[C@H](NC(=O)CN(C)C(=O)[C@@H]1CCS(=O)(=O)CCC(=O)N[C@@H](Cc2ccc(O)cc2)C(=O)N[C@@H]([C@@H](C)CC)C(=O)N[C@@H](CCC(N)=O)C(=O)N[C@@H](CC(N)=O)C(=O)N1)C(=O)NCC(N)=O [Example 14] (HELM PEPTIDE1{Y.I.Q.N.[O=C([C@H](CCS(=O)(=O)CCC(=O)[*:3])N[*:1])[*:2]].[Sar].[Nva].G.[am]}$PEPTIDE1,PEPTIDE1,1:R1-5:R3$$$V2.0; C-terminus assumed; bridges inferred)
107 | 1 | CC[C@H](C)[C@@H]1NC(=O)[C@H](Cc2ccc(O)cc2)NC(=O)CCS(=O)(=O)CC[C@@H](C(=O)N(C)CC(=O)N[C@@H](CCC(C)C)C(=O)NCC(N)=O)NC(=O)[C@H](CC(N)=O)NC(=O)[C@H](CCC(N)=O)NC1=O [Example 15] (HELM PEPTIDE1{Y.I.Q.N.[O=C([C@H](CCS(=O)(=O)CCC(=O)[*:3])N[*:1])[*:2]].[Sar].[CC(C)CC[C@H](N[*:1])C(=O)[*:2]].G.[am]}$PEPTIDE1,PEPTIDE1,1:R1-5:R3$$$V2.0)
104 | 5.6 | CC[C@H](C)[C@@H]1NC(=O)[C@H](Cc2ccc(O)cc2)NC(=O)CCS(=O)(=O)CC[C@@H](C(=O)N(C)CC(=O)N[C@@H](Cc2ccccc2)C(=O)NCC(N)=O)NC(=O)[C@H](CC(N)=O)NC(=O)[C@H](CCC(N)=O)NC1=O [Example 16] (HELM PEPTIDE1{Y.I.Q.N.[O=C([C@H](CCS(=O)(=O)CCC(=O)[*:3])N[*:1])[*:2]].[Sar].F.G.[am]}$PEPTIDE1,PEPTIDE1,1:R1-5:R3$$$V2.0)

Reference: patent US20170081368A1, “PEPTIDES AS OXYTOCIN AGONISTS” (Hoffmann-La Roche Inc., priority 2014, published 2017)
